pIC50: −log10 of the molar value.
These compounds were tested on SMMC-7721 (assay: Cytotoxicity against human SMMC7721 cells after 48 hrs by MTT assay). Conditions: SMMC-7721, 48 h.
Type: functional, cell-based

Row | Compound | pIC50
1 | C=CC[n+]1ccn(Cc2cc3ccccc3o2)c1C | < 4.40
2 | COc1ccc(C(=O)C[n+]2ccn(Cc3cc4ccccc4o3)c2C)cc1 | 4.94
3 | Cc1n(Cc2cc3ccccc3o2)cc[n+]1CC(=O)c1ccc2ccccc2c1 | 5.46
4 | CCCC[n+]1ccn(Cc2cc3ccccc3o2)c1 | < 4.40
5 | CCc1n(Cc2cc3ccccc3o2)cc[n+]1CC(=O)c1ccc2ccccc2c1 | 5.37
6 | CCCC[n+]1cn(Cc2cc3ccccc3o2)c2ccccc21 | < 4.40
7 | Cc1n(Cc2cc3ccccc3o2)cc[n+]1CC(=O)c1ccc(O)cc1 | < 4.40
8 | CCc1n(Cc2cc3ccccc3o2)cc[n+]1C(C(=O)c1ccccc1)c1ccccc1 (stereo not given) | 5.21
9 | COc1ccc(C(=O)C[n+]2ccn(Cc3cc4ccccc4o3)c2)cc1 | < 4.40
10 | O=C(C[n+]1ccn(Cc2cc3ccccc3o2)c1)c1ccc2ccccc2c1 | 5.09
11 | O=C(C[n+]1cn(Cc2cc3ccccc3o2)c2ccccc21)c1ccc(O)cc1 | < 4.40
12 | Cc1nccn1Cc1cc2ccccc2o1 | < 4.40
13 | O=C(C[n+]1ccn(Cc2cc3ccccc3o2)c1)c1ccc(O)cc1 | < 4.40
14 | CCc1n(Cc2cc3ccccc3o2)cc[n+]1CC(=O)c1ccc(OC)cc1 | 5.07
15 | CCc1nccn1Cc1cc2ccccc2o1 | < 4.40
16 | C=CC[n+]1ccn(Cc2cc3ccccc3o2)c1 | < 4.40
17 | CCc1n(Cc2cc3ccccc3o2)cc[n+]1CC(=O)c1ccccc1 | < 4.40

The compounds below were run on MCF7 (assay: Cytotoxicity against human MCF7 cells after 48 hrs by MTT assay). Conditions: MCF7, 48 h.
Type: functional, cell-based

Row | Compound | pIC50
18 | C=CC[n+]1ccn(Cc2cc3ccccc3o2)c1C | < 4.40
19 | COc1ccc(C(=O)C[n+]2ccn(Cc3cc4ccccc4o3)c2C)cc1 | 5.84
20 | Cc1n(Cc2cc3ccccc3o2)cc[n+]1CC(=O)c1ccc2ccccc2c1 | 5.96
21 | CCCC[n+]1ccn(Cc2cc3ccccc3o2)c1 | < 4.40
22 | CCc1n(Cc2cc3ccccc3o2)cc[n+]1CC(=O)c1ccc2ccccc2c1 | 5.59
23 | CCCC[n+]1cn(Cc2cc3ccccc3o2)c2ccccc21 | < 4.40
24 | Cc1n(Cc2cc3ccccc3o2)cc[n+]1CC(=O)c1ccc(O)cc1 | < 4.40
25 | CCc1n(Cc2cc3ccccc3o2)cc[n+]1C(C(=O)c1ccccc1)c1ccccc1 (stereo not given) | 5.48
26 | COc1ccc(C(=O)C[n+]2ccn(Cc3cc4ccccc4o3)c2)cc1 | < 4.40
27 | O=C(C[n+]1ccn(Cc2cc3ccccc3o2)c1)c1ccc2ccccc2c1 | 4.90
28 | O=C(C[n+]1cn(Cc2cc3ccccc3o2)c2ccccc21)c1ccc(O)cc1 | < 4.40
29 | Cc1nccn1Cc1cc2ccccc2o1 | < 4.40
30 | O=C(C[n+]1ccn(Cc2cc3ccccc3o2)c1)c1ccc(O)cc1 | < 4.40
31 | CCc1n(Cc2cc3ccccc3o2)cc[n+]1CC(=O)c1ccc(OC)cc1 | 5.52
32 | CCc1nccn1Cc1cc2ccccc2o1 | < 4.40
33 | C=CC[n+]1ccn(Cc2cc3ccccc3o2)c1 | < 4.40
34 | CCc1n(Cc2cc3ccccc3o2)cc[n+]1CC(=O)c1ccccc1 | < 4.40

What follows are compounds tested on A549 (assay: Cytotoxicity against human A549 cells after 48 hrs by MTT assay). Conditions: A549, 48 h.
Type: functional, cell-based

Row | Compound | pIC50
35 | C=CC[n+]1ccn(Cc2cc3ccccc3o2)c1C | < 4.40
36 | COc1ccc(C(=O)C[n+]2ccn(Cc3cc4ccccc4o3)c2C)cc1 | 6.43
37 | Cc1n(Cc2cc3ccccc3o2)cc[n+]1CC(=O)c1ccc2ccccc2c1 | 5.30
38 | CCCC[n+]1ccn(Cc2cc3ccccc3o2)c1 | < 4.40
39 | CCc1n(Cc2cc3ccccc3o2)cc[n+]1CC(=O)c1ccc2ccccc2c1 | 5.13
40 | CCCC[n+]1cn(Cc2cc3ccccc3o2)c2ccccc21 | < 4.40
41 | Cc1n(Cc2cc3ccccc3o2)cc[n+]1CC(=O)c1ccc(O)cc1 | < 4.40
42 | CCc1n(Cc2cc3ccccc3o2)cc[n+]1C(C(=O)c1ccccc1)c1ccccc1 (stereo not given) | 4.99
43 | COc1ccc(C(=O)C[n+]2ccn(Cc3cc4ccccc4o3)c2)cc1 | < 4.40
44 | O=C(C[n+]1ccn(Cc2cc3ccccc3o2)c1)c1ccc2ccccc2c1 | 5.00
45 | O=C(C[n+]1cn(Cc2cc3ccccc3o2)c2ccccc21)c1ccc(O)cc1 | < 4.40
46 | Cc1nccn1Cc1cc2ccccc2o1 | < 4.40
47 | O=C(C[n+]1ccn(Cc2cc3ccccc3o2)c1)c1ccc(O)cc1 | < 4.40
48 | CCc1n(Cc2cc3ccccc3o2)cc[n+]1CC(=O)c1ccc(OC)cc1 | 5.95
49 | CCc1nccn1Cc1cc2ccccc2o1 | < 4.40
50 | C=CC[n+]1ccn(Cc2cc3ccccc3o2)c1 | < 4.40
51 | CCc1n(Cc2cc3ccccc3o2)cc[n+]1CC(=O)c1ccccc1 | < 4.40

The compounds below were run on SW480 (assay: Cytotoxicity against human SW480 cells after 48 hrs by MTT assay). Conditions: SW480, 48 h.
Type: functional, cell-based

Row | Compound | pIC50
52 | C=CC[n+]1ccn(Cc2cc3ccccc3o2)c1C | < 4.40
53 | COc1ccc(C(=O)C[n+]2ccn(Cc3cc4ccccc4o3)c2C)cc1 | 6.55
54 | Cc1n(Cc2cc3ccccc3o2)cc[n+]1CC(=O)c1ccc2ccccc2c1 | 5.99
55 | CCCC[n+]1ccn(Cc2cc3ccccc3o2)c1 | < 4.40
56 | CCc1n(Cc2cc3ccccc3o2)cc[n+]1CC(=O)c1ccc2ccccc2c1 | 5.77
57 | CCCC[n+]1cn(Cc2cc3ccccc3o2)c2ccccc21 | < 4.40
58 | Cc1n(Cc2cc3ccccc3o2)cc[n+]1CC(=O)c1ccc(O)cc1 | < 4.40
59 | CCc1n(Cc2cc3ccccc3o2)cc[n+]1C(C(=O)c1ccccc1)c1ccccc1 (stereo not given) | 5.15
60 | COc1ccc(C(=O)C[n+]2ccn(Cc3cc4ccccc4o3)c2)cc1 | < 4.40
61 | O=C(C[n+]1ccn(Cc2cc3ccccc3o2)c1)c1ccc2ccccc2c1 | 4.77
62 | O=C(C[n+]1cn(Cc2cc3ccccc3o2)c2ccccc21)c1ccc(O)cc1 | < 4.40
63 | Cc1nccn1Cc1cc2ccccc2o1 | < 4.40
64 | O=C(C[n+]1ccn(Cc2cc3ccccc3o2)c1)c1ccc(O)cc1 | < 4.40
65 | CCc1n(Cc2cc3ccccc3o2)cc[n+]1CC(=O)c1ccc(OC)cc1 | 5.99
66 | CCc1nccn1Cc1cc2ccccc2o1 | < 4.40
67 | C=CC[n+]1ccn(Cc2cc3ccccc3o2)c1 | < 4.40
68 | CCc1n(Cc2cc3ccccc3o2)cc[n+]1CC(=O)c1ccccc1 | < 4.40

What follows are compounds tested on HL-60 (assay: Cytotoxicity against human HL60 cells after 48 hrs by MTT assay). Conditions: HL-60, 48 h.
Type: functional, cell-based

Row | Compound | pIC50
69 | C=CC[n+]1ccn(Cc2cc3ccccc3o2)c1C | < 4.40
70 | COc1ccc(C(=O)C[n+]2ccn(Cc3cc4ccccc4o3)c2C)cc1 | 6.11
71 | Cc1n(Cc2cc3ccccc3o2)cc[n+]1CC(=O)c1ccc2ccccc2c1 | 5.98
72 | CCCC[n+]1ccn(Cc2cc3ccccc3o2)c1 | < 4.40
73 | CCc1n(Cc2cc3ccccc3o2)cc[n+]1CC(=O)c1ccc2ccccc2c1 | 5.84
74 | CCCC[n+]1cn(Cc2cc3ccccc3o2)c2ccccc21 | < 4.40
75 | Cc1n(Cc2cc3ccccc3o2)cc[n+]1CC(=O)c1ccc(O)cc1 | < 4.40
76 | CCc1n(Cc2cc3ccccc3o2)cc[n+]1C(C(=O)c1ccccc1)c1ccccc1 (stereo not given) | 5.65
77 | COc1ccc(C(=O)C[n+]2ccn(Cc3cc4ccccc4o3)c2)cc1 | < 4.40
78 | O=C(C[n+]1ccn(Cc2cc3ccccc3o2)c1)c1ccc2ccccc2c1 | 5.20
79 | O=C(C[n+]1cn(Cc2cc3ccccc3o2)c2ccccc21)c1ccc(O)cc1 | < 4.40
80 | Cc1nccn1Cc1cc2ccccc2o1 | < 4.40
81 | O=C(C[n+]1ccn(Cc2cc3ccccc3o2)c1)c1ccc(O)cc1 | < 4.40
82 | CCc1n(Cc2cc3ccccc3o2)cc[n+]1CC(=O)c1ccc(OC)cc1 | 6.40
83 | CCc1nccn1Cc1cc2ccccc2o1 | < 4.40
84 | C=CC[n+]1ccn(Cc2cc3ccccc3o2)c1 | < 4.40
85 | CCc1n(Cc2cc3ccccc3o2)cc[n+]1CC(=O)c1ccccc1 | < 4.40

From ChEMBL document CHEMBL2429764, “Synthesis and cytotoxic activity of novel hybrid compounds between 2-alkylbenzofuran and imidazole” (Med Chem Res, 2013)
